Patent US8466202B2, “Anthracenedione compounds” (Sunten Phytotech Co., Ltd., priority 2006, dated 2013)

Test system: healthy male S.D. rats
Assay: Feces production in rats over the 10-day period (Example 3)
Format: in vivo, rat
Conditions: Sennosides 3.35 mg/kg
Method in brief: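 Male S.D. rats (n=6 per arm) received sennosides 3.35 mg/kg/day, STD05 or ARE at 8 or 24 mg/kg/day, single anthraquinones at 4 mg/kg/day, or CP at 8 mg/kg/day over 10 days, with untreated controls. On days 1, 5 and 10, rats in metabolic cages gave 24-h feces, which were weighed wet, counted and dried at 100° C. to derive water content.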

[1] = Group I, Day 1, STD05 8 mg/kg, ARE 8 mg/kg, Aloe-emodin 4 mg/kg, Rhein 4 mg/kg
[2] = Group I, Day 5, STD05 8 mg/kg, ARE 8 mg/kg, Aloe-emodin 4 mg/kg, Rhein 4 mg/kg
[3] = Group I, Day 10, STD05 8 mg/kg, ARE 8 mg/kg, Aloe-emodin 4 mg/kg, Rhein 4 mg/kg
[4] = Group II, Day 1, STD05 24 mg/kg, ARE 24 mg/kg, Chrysophanol 4 mg/kg, Emodin 4 mg/kg
[5] = Group II, Day 5, STD05 24 mg/kg, ARE 24 mg/kg, Chrysophanol 4 mg/kg, Emodin 4 mg/kg
[6] = Group II, Day 10, STD05 24 mg/kg, ARE 24 mg/kg, Chrysophanol 4 mg/kg, Emodin 4 mg/kg

Sennosides
Pellet count [1]: 101 | Water content [1]: 45.69% | Wet Weight [1]: 18.72 g | Pellet count [2]: 119 | Water content [2]: 48.68% | Wet Weight [2]: 26.16 g | Pellet count [3]: 146 | Water content [3]: 57.4% | Wet Weight [3]: 36.38 g | Pellet count [4]: 134 | Water content [4]: 61.09% | Wet Weight [4]: 36.19 g | Pellet count [5]: 118 | Water content [5]: 61.53% | Wet Weight [5]: 36.42 g | Pellet count [6]: 132 | Water content [6]: 53.99% | Wet Weight [6]: 36.21 g
